US20220281831A1, “FUSED-GLUTARIMIDE CRBN LIGANDS AND USES THEREOF” (Kymera Therapeutics, Inc., priority 2019, published 2022)

Biological target: His-tagged CRBN-DDB1 complex (Homo sapiens, UniProt Q96SW2)
Assay: Time-Resolved Fluorescence Resonance Energy Transfer (TR-FRET / HTRF) CRBN binding assay, displacement of Cy5-labeled thalidomide
Settings: His-CRBN-DDB1, Cy5-thalidomide 8 nM, 1 hour room temperature
Method: Time-Resolved Fluorescence Resonance Energy Transfer (TR-FRET) Assay.
Equal volumes of His-tagged CRBN-DDB1 complex (56 nM) was mixed with Eu-cryptate labeled Anti-6HIS-monoclonal antibody (50× dilution from the commercial stock solution, Vender: Cisbio, Cat. #61HI2KLA) in a final buffer containing 20 mM HEPES pH 7.0, 150 mM NaCl, 0.005% Tween-20. […] The mixture were incubated at room temperature for 1 hour. FRET signals were measured on an EnVision plate reader (Perkin Elmer) by exciting at 340 nm and recording emission at both 615 nm as no FRET control and 665 nm as the FRET signals with a 60 microsecond delay. FRET efficiency was calculated as the ratio of fluorescent signals at […]. Quantitative loss of FRET efficiency as a function of compound concentrations was fitted by a four-parameter Logistic Function using GraphPad Prism 7.0 and the IC50 values were reported for each compound.
The compound numbers correspond to the compound numbers in Table 1.

His-tagged CRBN-DDB1 complex, sequence (Q96SW2 whole entry): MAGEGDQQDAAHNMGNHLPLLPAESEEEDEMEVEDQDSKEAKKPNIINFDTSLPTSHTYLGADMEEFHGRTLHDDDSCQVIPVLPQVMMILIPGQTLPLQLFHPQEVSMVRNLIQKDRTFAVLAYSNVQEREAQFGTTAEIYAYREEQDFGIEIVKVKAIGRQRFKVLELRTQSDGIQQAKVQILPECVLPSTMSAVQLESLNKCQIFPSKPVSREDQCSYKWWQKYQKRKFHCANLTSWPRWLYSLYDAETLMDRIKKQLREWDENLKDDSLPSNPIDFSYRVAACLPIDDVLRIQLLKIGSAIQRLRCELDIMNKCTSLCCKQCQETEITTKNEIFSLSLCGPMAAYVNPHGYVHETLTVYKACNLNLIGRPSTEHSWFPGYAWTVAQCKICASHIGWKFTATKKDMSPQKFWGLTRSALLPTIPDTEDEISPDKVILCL
His-tagged CRBN-DDB1 complex, sequence (Q16531 whole entry partner): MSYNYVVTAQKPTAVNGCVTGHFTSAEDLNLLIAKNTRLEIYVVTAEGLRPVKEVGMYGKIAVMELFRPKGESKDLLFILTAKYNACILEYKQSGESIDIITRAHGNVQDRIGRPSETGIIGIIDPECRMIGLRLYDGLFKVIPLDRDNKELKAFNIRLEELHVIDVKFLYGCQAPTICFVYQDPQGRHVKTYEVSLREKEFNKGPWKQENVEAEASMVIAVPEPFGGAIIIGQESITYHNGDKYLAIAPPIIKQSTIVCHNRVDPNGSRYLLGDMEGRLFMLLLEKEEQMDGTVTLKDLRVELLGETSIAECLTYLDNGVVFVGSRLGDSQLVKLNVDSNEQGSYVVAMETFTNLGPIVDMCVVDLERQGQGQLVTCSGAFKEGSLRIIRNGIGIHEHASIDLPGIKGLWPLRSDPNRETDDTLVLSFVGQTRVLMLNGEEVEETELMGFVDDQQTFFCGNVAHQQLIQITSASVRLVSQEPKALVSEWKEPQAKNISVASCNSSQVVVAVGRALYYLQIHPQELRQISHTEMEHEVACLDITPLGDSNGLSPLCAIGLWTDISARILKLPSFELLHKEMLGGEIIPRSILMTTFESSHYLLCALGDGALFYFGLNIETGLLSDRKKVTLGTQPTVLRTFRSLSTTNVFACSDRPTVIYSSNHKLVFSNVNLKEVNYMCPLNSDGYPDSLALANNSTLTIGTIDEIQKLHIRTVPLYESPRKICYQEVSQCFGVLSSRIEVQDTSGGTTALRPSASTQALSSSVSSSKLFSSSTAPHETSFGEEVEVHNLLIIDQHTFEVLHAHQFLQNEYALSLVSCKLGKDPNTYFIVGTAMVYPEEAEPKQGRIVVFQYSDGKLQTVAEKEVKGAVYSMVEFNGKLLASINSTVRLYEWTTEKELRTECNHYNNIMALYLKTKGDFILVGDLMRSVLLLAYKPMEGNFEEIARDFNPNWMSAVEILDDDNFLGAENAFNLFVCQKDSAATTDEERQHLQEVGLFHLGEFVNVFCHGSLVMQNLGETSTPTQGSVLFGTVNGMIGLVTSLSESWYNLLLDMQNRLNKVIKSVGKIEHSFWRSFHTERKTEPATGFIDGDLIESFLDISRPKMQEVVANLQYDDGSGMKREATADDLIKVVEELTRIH

IC50 [µM] | Structure (SMILES)
> 100 | O=C1Cc2cnc(Br)cc2C(=O)N1 [Compound I-13, 7-bromo-2,4-dihydro-2,6-naphthyridine-1,3-dione]
> 100 | O=C1NC(=O)c2cc(Br)ccc21 [Compound I-28, 5-bromo-2H-isoindole-1,3-dione]
> 100 | Cc1ccccc1-c1ccc2c(c1)C(=O)NC2=O [Compound I-30, 5-(2-methylphenyl)-2H-isoindole-1,3-dione]
> 100 | Cc1ncoc1-c1ccc2c(c1)C(=O)NC2=O [Compound I-32, 5-(4-methyl-1,3-oxazol-5-yl)-2H-isoindole-1,3-dione]
> 100 | Cc1ccccc1-n1cc2c(n1)CC(=O)NC2=O [Compound I-35, 2-(2-methylphenyl)-5H,7H-pyrazolo[4,3-c]pyridine-4,6-dione]
> 100 | O=c1[nH]c(=O)c2cc(Br)ccc2[nH]1 [Compound I-55, 6-Bromo-1,3-dihydroquinazoline-2,4-dione]
> 100 | O=c1[nH]c(=O)c2c(Br)cccc2[nH]1 [Compound I-56, 5-Bromo-1,3-dihydroquinazoline-2,4-dione]
> 100 | Cn1c(=O)[nH]c(=O)c2cc(Br)ccc21 [Compound I-59, 6-bromo-1-methyl-3H-quinazoline-2,4-dione]
> 100 | Cn1c(=O)[nH]c(=O)c2c(Br)cccc21 [Compound I-60, 5-bromo-1-methyl-3H-quinazoline-2,4-dione]
> 100 | O=C1CC2(CCN(c3ccc(Br)cc3)CC2)CC(=O)N1 [Compound I-86]
> 100 | COc1cc(F)ccc1N1CCC2(CC1)CC(=O)NC(=O)C2 [Compound I-87]
> 100 | COc1cccc(N2CCC3(CC2)CC(=O)NC(=O)C3)c1 [Compound I-88]
> 100 | O=C1CC2(CCN(c3cccc(Cl)c3)CC2)CC(=O)N1 [Compound I-89]
> 100 | O=C1CC2(CCN(c3ccc(C(=O)NC4CC4)cc3)CC2)CC(=O)N1 [Compound I-90]
> 100 | O=C1CC2(CCN(c3ccc(OCc4ccccc4)cc3)CC2)CC(=O)N1 [Compound I-91]
30 to 100 | O=C1CC2(CCN(c3ccc(F)cc3)CC2)CC(=O)N1 [Compound I-92]
> 100 | Cc1ccc(N2CCC3(CC2)CC(=O)NC(=O)C3)cc1 [Compound I-93]
> 100 | O=C1CC2(CCN(c3cccc4ncccc34)CC2)CC(=O)N1 [Compound I-94]
30 to 100 | CCCOc1ccc(N2CCC3(CC2)CC(=O)NC(=O)C3)cc1 [Compound I-95]
> 100 | CCOC(=O)c1cccc(N2CCC3(CC2)CC(=O)NC(=O)C3)c1 [Compound I-96]
> 100 | O=C1CC2(CCN(c3cccc(O)c3)CC2)CC(=O)N1 [Compound I-97]
> 100 | O=C1CC2(CCN(c3ccc(-c4ccccc4)cc3)CC2)CC(=O)N1 [Compound I-98]
> 100 | O=C1CC2(CCN(c3cccc(F)c3)CC2)CC(=O)N1 [Compound I-99]
> 100 | CC(=O)Nc1cccc(N2CCC3(CC2)CC(=O)NC(=O)C3)c1 [Compound I-100]
> 100 | CC(C)Oc1cccc(N2CCC3(CC2)CC(=O)NC(=O)C3)c1 [Compound I-101]
> 100 | O=C1CC2(CCN(c3cccc(OC(F)(F)F)c3)CC2)CC(=O)N1 [Compound I-102]

IC50 [µM] | Structure (SMILES)
> 100 | O=C1CC2(CCN(c3ccc(O)cc3)CC2)CC(=O)N1 [Compound I-103]
> 100 | O=C1CC2(CCN(c3cccc4cnccc34)CC2)CC(=O)N1 [Compound I-104]
> 100 | O=C1CC2(CCN(c3ccc(OC(F)(F)F)cc3)CC2)CC(=O)N1 [Compound I-105]
> 100 | O=C1CC2(CCN(c3cccc(C(=O)O)c3)CC2)CC(=O)N1 [Compound I-106]
> 100 | CS(=O)(=O)c1ccc(N2CCC3(CC2)CC(=O)NC(=O)C3)cc1 [Compound I-107]
30 to 100 | CC(C)(C)OC(=O)NCc1ccc(N2CCC3(CC2)CC(=O)NC(=O)C3)cc1 [Compound I-108]
> 100 | O=C1CC2(CCN(c3cccc4cccnc34)CC2)CC(=O)N1 [Compound I-109]
> 100 | O=C1CC2(CCN(c3ccc(F)cc3Cl)CC2)CC(=O)N1 [Compound I-110]
> 100 | N#Cc1ccccc1N1CCC2(CC1)CC(=O)NC(=O)C2 [Compound I-111]
> 100 | O=Cc1ccc(N2CCC3(CC2)CC(=O)NC(=O)C3)cc1 [Compound I-112]
> 100 | Nc1ccc(N2CCC3(CC2)CC(=O)NC(=O)C3)cc1 [Compound I-113]
30 to 100 | O=C1CC2(CCN(c3ccc(Oc4ccccc4)cc3)CC2)CC(=O)N1 [Compound I-114]
> 100 | O=C1CC2(CCN(c3ccccc3Cl)CC2)CC(=O)N1 [Compound I-115]
> 100 | NC(=O)c1ccc(N2CCC3(CC2)CC(=O)NC(=O)C3)cc1 [Compound I-116]
> 100 | COc1ccc2cc(N3CCC4(CC3)CC(=O)NC(=O)C4)ccc2c1 [Compound I-117]
> 100 | O=C1CC2(CCN(c3ccc4c(c3)CCO4)CC2)CC(=O)N1 [Compound I-118]
> 100 | O=C1CC2(CCN(c3ccc4c(c3)OCO4)CC2)CC(=O)N1 [Compound I-119]
> 100 | O=C1NC(=O)[C@@H]2CN(c3ccc(-c4ccccc4)c(F)c3)C[C@H]12 [Compound I-120]
> 100 | Cc1ccccc1N1C[C@@H]2C(=O)NC(=O)[C@@H]2C1 [Compound I-121]
> 100 | COC(=O)c1ccc(N2C[C@@H]3C(=O)NC(=O)[C@@H]3C2)cc1 [Compound I-122]
30 to 100 | O=C1NC(=O)[C@@H]2CN(c3ccc(Br)cc3)C[C@H]12 [Compound I-123]
> 100 | COc1cccc(N2C[C@@H]3C(=O)NC(=O)[C@@H]3C2)c1 [Compound I-125]
> 100 | O=C1NC(=O)[C@@H]2CN(c3cccc(Cl)c3)C[C@H]12 [Compound I-126]
> 100 | O=C(NC1CC1)c1ccc(N2C[C@@H]3C(=O)NC(=O)[C@@H]3C2)cc1 [Compound I-127]
> 100 | O=C1NC(=O)[C@@H]2CN(c3ccc(OCc4ccccc4)cc3)C[C@H]12 [Compound I-128]
> 100 | O=C1NC(=O)[C@@H]2CN(c3ccc(F)cc3)C[C@H]12 [Compound I-129]

IC50 [µM] | Structure (SMILES)
30 to 100 | Cc1ccc(N2C[C@@H]3C(=O)NC(=O)[C@@H]3C2)cc1 [Compound I-130]
> 100 | O=C1NC(=O)[C@@H]2CN(c3cccc4ncccc34)C[C@H]12 [Compound I-131]
> 100 | O=C1NC(=O)[C@@H]2CN(c3cccc(O)c3)C[C@H]12 [Compound I-134]
> 100 | O=C1NC(=O)[C@@H]2CN(c3cccc(F)c3)C[C@H]12 [Compound I-135]
> 100 | CC(=O)Nc1cccc(N2C[C@@H]3C(=O)NC(=O)[C@@H]3C2)c1 [Compound I-136]
> 100 | CC(C)Oc1cccc(N2C[C@@H]3C(=O)NC(=O)[C@@H]3C2)c1 [Compound I-137]
> 100 | CCCOc1ccc(N2C[C@@H]3C(=O)NC(=O)[C@@H]3C2)cc1 [Compound I-138]
> 100 | O=C1NC(=O)[C@@H]2CN(c3cccc(OC(F)(F)F)c3)C[C@H]12 [Compound I-139]
> 100 | O=C1NC(=O)[C@@H]2CN(c3ccc(O)cc3)C[C@H]12 [Compound I-140]
> 100 | O=C1NC(=O)[C@@H]2CN(c3cccc4cnccc34)C[C@H]12 [Compound I-141]
> 100 | O=C1NC(=O)[C@@H]2CN(c3ccc(OC(F)(F)F)cc3)C[C@H]12 [Compound I-142]
> 100 | O=C(O)c1cccc(N2C[C@@H]3C(=O)NC(=O)[C@@H]3C2)c1 [Compound I-143]
> 100 | CS(=O)(=O)c1ccc(N2C[C@@H]3C(=O)NC(=O)[C@@H]3C2)cc1 [Compound I-144]
> 100 | CC(C)(C)OC(=O)NCc1ccc(N2C[C@@H]3C(=O)NC(=O)[C@@H]3C2)cc1 [Compound I-145]
> 100 | O=C1NC(=O)[C@@H]2CN(c3cccc4cccnc34)C[C@H]12 [Compound I-146]
> 100 | O=C1NC(=O)[C@@H]2CN(c3ccc(F)cc3Cl)C[C@H]12 [Compound I-147]
> 100 | N#Cc1ccccc1N1C[C@@H]2C(=O)NC(=O)[C@@H]2C1 [Compound I-148]
> 100 | O=Cc1ccc(N2C[C@@H]3C(=O)NC(=O)[C@@H]3C2)cc1 [Compound I-149]
> 100 | Nc1ccc(N2C[C@@H]3C(=O)NC(=O)[C@@H]3C2)cc1 [Compound I-150]
> 100 | O=C1NC(=O)[C@@H]2CN(c3ccccc3Cl)C[C@H]12 [Compound I-153]
> 100 | NC(=O)c1ccc(N2C[C@@H]3C(=O)NC(=O)[C@@H]3C2)cc1 [Compound I-154]
> 100 | COc1ccc2cc(N3C[C@@H]4C(=O)NC(=O)[C@@H]4C3)ccc2c1 [Compound I-155]
> 100 | O=C1NC(=O)[C@@H]2CN(c3ccc4c(c3)CCO4)C[C@H]12 [Compound I-156]
> 100 | O=C1NC(=O)[C@@H]2CN(c3ccc4c(c3)OCO4)C[C@H]12 [Compound I-157]
> 100 | O=C1NC(=O)[C@@H]2CN(c3ccccc3)C[C@H]12 [Compound I-158]
> 100 | O=C1CC2(CCN(c3ccc(-c4ccccc4)c(F)c3)CC2)CC(=O)N1 [Compound I-160]
